88 compounds from a melting point compilation (Tetko et al.; mined from patent text by program, amines drawn as free bases though some values may be those of a salt) can be followed below.

Each structure is given as a SMILES string. Some results are limits rather than exact numbers.

Turning to `CCN1CCCCC1CCc1ccccc1NC(=O)C=Cc1ccccc1` (stereo not drawn), the melting point fell in the range of 120 to 122 °C.
In the case of `Cc1cc2nc(SCC(F)(F)F)[nH]c2cc1C` it was 150 to 163 °C.
In the case of `CN1CCC(c2c[nH]c3ccc(Cn4cncn4)cc23)C1` (stereo not drawn) it was 59 to 61 °C; in that of `COC(=O)c1cc2c(O)c(C(=O)NCc3ccc(Cl)cc3)cnc2nc1C`, 265 to 267 °C; in that of `COC(=O)c1cc(F)ccc1Nc1ccnc2c(C(F)(F)F)cccc12`, 166 °C.
In the case of `O=C(O)CCCCNC(=O)C(CS)Cc1ccccc1` (stereo not drawn) it was 78 to 79 °C; in that of `CS(=O)c1n[nH]c(-c2cc(C(C)(C)C)c(O)c(C(C)(C)C)c2)n1` (stereo not drawn), 135 to 145 °C.
Compound `CC(C)Oc1cc(/C=C/C(=O)O)n(Cc2ccc(C(F)(F)F)cc2Cl)n1` came in with a melting point of 170 to 171 °C.
With `Cc1cccc2[nH]c(=O)n(CCCN3CC=C(c4cccc(C(F)(F)F)c4)CC3)c(=O)c12` the figure was 158 to 160 °C; with `CCCc1c(OCCCOc2cccc3c2CCCC3)ccc2c1OC(CCC=O)(CCC=O)CC2=O`, 107 to 108 °C.
In the case of `CCOc1nn(Cc2cncc(OCc3nc(-c4ccccc4)oc3C)c2)cc1CCC(=O)O` it was 133 to 134 °C; in that of `COc1ccc(C=CC2=NNC(C)Cc3cc4c(cc32)OCO4)c(OC)c1` (stereo not drawn), 176 to 178 °C.
Compound `CCN(CC)c1ccc(C(=O)c2c(Cl)c(Cl)c(Cl)c(Cl)c2C(=O)O)c(C)c1` gave a melting point of 179 to 181 °C.
Compound `c1cc2ccc3occc3c2[nH]1` showed a melting point of 141 to 144 °C.
In the case of `COc1ccc(Cc2nc3c(c(OC)nn3C(C)CCCc3ccccc3)c(=O)[nH]2)cc1OC` (stereo not drawn) it was 148 °C; in that of `COc1cccc(OC)c1CN1CCC(=O)C(C(c2ccc(F)cc2)c2ccc(F)cc2)C1` (stereo not drawn), 125 to 126 °C.
In the case of `CC(C#N)c1cccc(C(=O)c2ccccc2)c1` (stereo not drawn) it was 88 to 94 °C; in that of `COc1cc(-c2nc(-c3cc(OC)c(OCc4ccccc4)c(OC)c3)c(-c3cc(OC)c(OCc4ccccc4)c(OC)c3)o2)cc(OC)c1OCc1ccccc1`, 80 to 120 °C.
In the case of `NC(=O)Cc1nc(-c2ccc(Cl)cc2)sc1-c1ccccc1` it was 202 to 203 °C.
Compound `O=c1oc(-c2cccc(F)c2)nc2cccc(Cl)c12` registered a melting point of 120 to 123 °C.
For the compound `CCc1nn2ccccc2c1N(CCCF)C(=O)COC`, the melting point was in the range of 59.9 to 63.9 °C.
With `Cn1c(-c2ccccc2Nc2cccc(C(F)(F)F)c2)n[nH]c1=O` the figure was 178 to 180 °C.
With `COc1cccc(-c2cn(-c3ccc(C(=O)O)cc3)nn2)c1` the figure was 276 to 277 °C; with `CCOC(=O)c1ccc2c(c1)OC(c1cc(Cl)cc(Cl)c1)(c1cc(Cl)cc(Cl)c1)O2`, 89 °C.
In the case of `O=CC=CC=CC=CC=Cc1ccsc1` it was 156 to 158 °C; in that of `O=C(Nc1cccc(C(F)(F)F)c1)c1ccccc1C(c1ccc(O)cc1)c1ccc(O)cc1`, 198 to 200 °C; in that of `C=CC(=O)NCc1ccc([N+](=O)[O-])cc1`, 119 to 121 °C.
`O=C(c1ccc(F)c(Cl)c1)c1ccc(F)c(Cl)c1`: the melting point was determined as 93 °C.
With `CCOC(=O)c1c(O)c2cccnc2n(Cc2ccc(Cl)cc2)c1=O` the figure was 142 to 144 °C; with `CC(Oc1ccc(C(=O)c2ccc(O)cc2)c(Cl)c1Cl)C(=O)O` (stereo not drawn), 208 to 212 °C; with `Nc1nc2[nH]c(CCC#Cc3ccc(C(=O)N[C@@H](CCC(=O)O)C(=O)O)o3)cc2c(=O)[nH]1`, 193 to 194 °C.
With `OCc1ccc(N2CCN(Cc3ccc4ccccc4n3)CC2)cc1` the figure was 126 to 127 °C.
With `CCCCC1c2ccccc2-c2cc(Br)ccc2N1S(=O)(=O)c1ccc(OC)cc1` (stereo not drawn) the figure was 108 to 111 °C; with `Cc1ccc(C(=O)C2=C(O)C(=O)N(c3ccc(C)nn3)C2c2cccc(OC(C)C)c2)cc1` (stereo not drawn), 243 to 245 °C.
The compound `CCN(Cc1ccc(Cl)cc1Cl)C(=O)n1oc(C)c(Cl)c1=O` gave a melting point of 80.5 to 81.5 °C.
With `CC(C)(C)OC(=O)N1CCn2ccc(C#N)c2C1` the figure was 97 °C.
`CCCNC(=O)C(C#N)(CC)c1ccccc1` (stereo not drawn): the melting point fell in the range of 55 to 56 °C.
With `C=C(CC)CNc1cccc(-c2ccnc3c(C(=O)c4cccs4)cnn23)c1` the figure was 79 to 82 °C; with `COc1cc(NC(=O)OC(C)(C)C)c(N)cc1C#Cc1ccccc1`, 158 °C.
In the case of `NC(=O)c1ccccc1Nc1ccncc1` it was 206 to 209 °C; in that of `O=C(O)Cc1ccc(-c2ccc(-c3ccccc3)cc2)o1`, 196 to 210 °C.
On to `CC(C)(C)OC(=O)N1CCCC(C2=C(C#N)C(c3cccc4nonc34)c3c[nH]nc3N2)C1` (stereo not drawn), for which the melting point is 229 °C.
With `Brc1ccc2c(c1)cc1n2CCC1` the figure was 78.7 to 79.4 °C; with `CCOc1cc2c(cc1OCC)-c1c(OCC)c(OCC)cc3c1C(C2)N(C)CC3O` (stereo not drawn), 140 to 142 °C; with `COc1cccc(C(O)CNCCN)c1` (stereo not drawn), 50 °C.
As for `CCOc1ccc(-c2c(Cl)ncn2-c2ccc(S(C)(=O)=O)cc2)cc1`, the melting point worked out at 207 °C.
With `Cc1ccc2c(c1)c(O)c(C(=O)NC1CCCCC1)c(=O)n2Cc1ccc(F)cc1` the figure was 156 °C; with `CN(C(=O)OC(C)(C)C)c1cc(Oc2ccc(-c3ccc(OCc4ccccc4)cc3)cc2)ccc1[N+](=O)[O-]`, 123 to 125 °C; with `Cc1csc2nc3cccc(C(F)(F)F)c3c(=O)n12`, 182 to 186 °C.
For `CCCn1cnc2c1c1n[nH]c(=O)n1c(=O)n2CCC`, the melting point is 217 to 218 °C.
Turning to `CC(C)(C)OC(=O)N[C@H]1CC[C@H](CCN2CCN(c3cc(C#N)cc(C(F)(F)F)c3)CC2)CC1`, the melting point was in the range of 139 to 140 °C.
With `Cc1cccc(OCC2=NCCN2C(=O)Oc2cccc(C)c2C)c1C` the figure was 126 to 127 °C; with `CC(=O)Nc1ccc(S(=O)(=O)N2CCN(C)CC2)cc1`, 184 °C.
Turning to `CC1(C)CCC(C)(C)c2c1ccc(CS(=O)(=O)c1ccccc1)c2N`, the melting point lay within 156 to 157 °C.
In the case of `O=C1CC(c2ccccc2OCc2ccccc2)=Nc2ccc(N3CCCC3)cc21` it was 293 to 295 °C; in that of `COC(=O)Nc1cccc(F)c1I`, 80 to 82 °C; in that of `CC(C)(O)C(O)c1ccc(-c2ccc(C(CC3CCOCC3)c3ccc(S(C)(=O)=O)c(Cl)c3)[nH]2)nc1` (stereo not drawn), 138 to 140 °C.
With `CN(C)C(N)=Nc1cc(C#N)ccc1N1CCOCC1` the figure was 125 to 127 °C; with `CCOC(=O)c1ccc(CBr)c(F)c1`, 42.5 to 44 °C; with `O=C1N=c2cccc(OCCN3CCC(Cc4ccccc4)CC3)c2=N1`, 153 to 154 °C.
In the case of `Cc1cc(=O)[nH]c2c1C(=O)CCC2` it was 96 to 97 °C.
Compound `CCS(=O)(=O)c1cc(OC)c(OC)c(C(=O)NCC2CCCN2CC2CC2)c1` (stereo not drawn) yielded a melting point of 167 to 170 °C.
In the case of `CCOCc1nc2c(N)nc3cc(-c4cncc(OC)c4)ccc3c2n1CC(C)(C)OCCS(C)(=O)=O` it was 186 to 188 °C; in that of `Cc1nnc(CNC(=O)CNC(=O)CN)n1-c1ccc(Cl)cc1C(=O)c1ccccc1Cl`, 60 to 65 °C; in that of `CN1CC=C(c2c[nH]c3ccc(C4CN=CS4)cc23)CC1` (stereo not drawn), 260 to 263 °C.
As to `O=c1oc2ccccc2c(O)c1C(Sc1ccc(Cl)cc1)c1cc(F)ccc1F` (stereo not drawn), the melting point fell in the range of 146 to 147 °C.
`CC#CCOc1ccc(S(=O)(=O)C2(C(=O)NO)CCOCC2)cc1` had a melting point of 210 °C.
With `COc1ccccc1N1CCN(Cc2c(C3CC3)nn(-c3ccccc3)c2N)CC1` the figure was 70 to 74 °C; with `O=C(O)CCNC(=O)c1ccc(-c2ccccc2OC2OC(CO)C(O)C(O)C2O)cc1` (stereo not drawn), 101 to 104 °C; with `COC(=O)c1ccc(-n2c(C)nc3cc(C#N)ccc32)cc1`, 179 to 181 °C.
In the case of `O=C(NC(Cc1c[nH]c2ccccc12)C(=O)CCc1cc(C(F)(F)F)cc(C(F)(F)F)c1)c1ccccc1` (stereo not drawn) it was 119 to 122 °C; in that of `CN(C)C1CCN(c2cc3ccccc3c(=O)[nH]2)CC1`, 204 to 205 °C.
In the case of `CCc1ccc(Nc2nc3cc(NC(=O)c4ccc(Cl)cc4)ccc3o2)cc1` it was over 250 °C.
Turning to `O=C1OC(COc2ccccc2)CN1CCOC1CCCCO1` (stereo not drawn), the melting point is 78 to 80 °C.
On to `CC[C@H](N)C(=O)N1CCC[C@H]1C(=O)NCCCSC`, for which the melting point lay within 120 to 121 °C.
In the case of `CCc1cc(-c2cc(N)n3nc(-c4ccco4)nc3c2)ccn1` it was 184 to 186 °C.
With `Cc1nc2c(N)nc3ccccc3c2n1Cc1ccccc1` the figure was 279 to 282 °C.
In the case of `CCCCC(C)(Cc1ccc(OCCNC(=O)c2ccc(-c3ccccn3)cc2)cc1)C(=O)O` (stereo not drawn) it was 106 to 108 °C; in that of `CC(C)c1cccc(C(C)C)c1NC(=O)N(Cc1ccc(O)cc1)CC1(c2c[nH]cn2)CCCCC1`, 185 to 188 °C; in that of `COCCOc1ccc2c(C3C(=O)Nc4ccc(C#N)cc43)nccc2c1` (stereo not drawn), 214 to 219 °C.
On to `Cc1nc(Cn2c(=O)sc3cc(F)c(N=C=O)cc32)no1`, for which the melting point fell in the range of 125 to 127 °C.
With `CC(=O)NC[C@H]1CN(c2ccc(-n3nccc3-c3ccc(F)cc3)c(F)c2)C(=O)O1` the figure was 111 to 113 °C.
With `Cc1ccnc(N2C(=S)SCC2(C)O)c1` (stereo not drawn) the figure was 119 °C; with `OC1CCN(c2nnc(-c3ccc(Cl)cc3)c(-c3ccc(Cl)cc3)n2)CC1`, 102 to 105 °C; with `CC(C)c1cccc(CCCO)c1NC(=O)CC1c2ccccc2Oc2ccccc21`, 218 to 219 °C.
The compound `CS(=O)(=O)Nc1ccc(Cl)cc1C(=Cc1ccc2ccccc2c1)C(N)=O` registered a melting point of 179 to 184 °C.
With `CC(C)(Oc1ccc(OCc2cccc3c2cnn3-c2ccc(C(F)(F)F)cc2)cc1)C(=O)O` the figure was 128 to 130 °C; with `COc1ccc(OC)c2c1CCC(NC(C)=O)C2` (stereo not drawn), 156 to 158 °C.
